Source: patent publication US20240294551A1 (AMGEN INC., priority 2022, published 2024)
Where two headings read alike, the source gives them in different places.

Key:
[1] = target: His-tagged KRAS G12D protein (Homo sapiens (Human), UniProt P01116, G12D); experiment: KRAS G12D TR-FRET Assay; format: binding
Procedure, shortened: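 His-tagged KRAS G12D (diluted to 20 nM in pH 7.4 HEPES buffer with 10 mM MgCl2 and 10 μM GDP) was preincubated with titrated compound for 30 min at room temperature. Biotinylated KRPep-2d peptide (diluted to 20 nM) was then added for 1 h, and displacement was monitored by TR-FRET.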

[2] = target: GDP-bound KRAS protein (aa 1-169), containing both G12D and C118A amino acid substitutions (Homo sapiens (Human), UniProt P01116, C118A/G12D); experiment: KRAS G12D Coupled Nucleotide Exchange Assay; format: biochemical
[3] = system: Phosphorylation of ERK1/2 in AsPC-1 cells; experiment: Phospho-ERK1/2 MSD Assay; format: cell-based, human; details: Homo sapiens, ASPC1, 2 h
Procedure, shortened: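 Read-out: MSD electrochemiluminescent detection of phosphorylated ERK1/2 in whole-cell lysates, fitted to a 4-parameter logistic curve for IC50. Prior to lysis, AsPC-1 cells (25,000 per well) received a 2 h compound dose-response at 37 °C.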

AsPC-1 cells = experiment: AsPC-1 CTG Assay (CellTiter-Glo cell viability); format: cell-based, human; details: Homo sapiens, ASPC1, 72 h, first value of the cell, read-out: G12D/C/V Cell Proliferation CTG (72 h) AsPC-1
Procedure, shortened: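 Human pancreatic AsPC-1 or colon SW620 cells in RPMI 1640 with 10% FBS, seeded overnight, then exposed to serially diluted compound for 72 h at 37 °C. CellTiter-Glo luminescence normalized to DMSO control; IC50 from a 4-parameter logistic model.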

[4] = TR-FRET, read-out: KRAS G12D Binding
[5] = 2 hours compound pre-incubation, read-out: KRAS G12D Coupled Exchange
[6] = read-out: 2 h p-ERK (AsPC-1 cells)
[7] = read-out: KRAS G12D Binding IC50
[8] = read-out: KRAS G12D Coupled Exchange IC50
[9] = read-out: 2 h p-ERK (AsPC-1 cells), IC50

Chain of His-tagged KRAS G12D protein (P01116 other isoform, or with tags, fused parts or gaps G12D): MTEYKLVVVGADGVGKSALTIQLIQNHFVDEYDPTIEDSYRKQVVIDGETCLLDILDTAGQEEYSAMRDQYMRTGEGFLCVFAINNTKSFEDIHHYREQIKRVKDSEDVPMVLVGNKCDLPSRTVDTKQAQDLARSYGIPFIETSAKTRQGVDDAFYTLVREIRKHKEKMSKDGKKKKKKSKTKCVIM
Chain of GDP-bound KRAS protein (aa 1-169), containing both G12D and C118A amino acid substitutions (P01116 other isoform, or with tags, fused parts or gaps G12D/C118A): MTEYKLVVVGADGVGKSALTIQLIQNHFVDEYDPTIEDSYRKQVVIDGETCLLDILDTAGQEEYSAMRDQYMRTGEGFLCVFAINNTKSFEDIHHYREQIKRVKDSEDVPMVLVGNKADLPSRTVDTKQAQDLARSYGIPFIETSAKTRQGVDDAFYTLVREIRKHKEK

Compound | IC50 [1, 4] [nM] | IC50 [2, 5] [nM] | IC50 [3, 6] [nM] | IC50 (AsPC-1 cells; AsPC-1 cells (G12D), 72 h) [nM] | IC50 [1, 7] [nM] | IC50 [2, 8] [nM] | IC50 [3, 9] [nM] | IC50 (AsPC-1 cells; AsPC-1, 72 h) [nM]
O[C@]12C[C@@]3(CCCN(C3)c3nc(OC[C@@]45CCCN4C[C@H](F)C5)nc4c(F)c(ncc34)-c3c(c(Cl)cc4[nH]ncc34)CCc3cnc1o3)C2 [Example 396, (1S,3R)-11-chloro-33-fluoro-25-(((2R,7aS)-2-fluorotetrahydro-1H-pyrrolo[1,2-a]pyrrol-7a(5H)-yl)methoxy)-34-oxa-5,14,15,20,24,26,28-heptaazaoctacyclo[26.3.1.1~1,3~.1~4,7~.1~19,23~.0~10,18~.0~13,17~.0~22,27~]pentatriaconta-4,6,10,12,15,17,19(33),20,22,24,26-undecaen-3-ol] | 7 | 3 | 1.2 | 2 |  |  |  | 
O[C@H]1C[C@H]2COCCCCc3c(Cl)cc4[nH]ncc4c3-c3ncc4c(nc(OC[C@@]56CCCN5C[C@H](F)C6)nc4c3F)N(C1)C2 [Example 407, (17R,19S)-9-chloro-30-fluoro-24-(((2R,7aS)-2-fluorotetrahydro-1H-pyrrolo[1,2-a]pyrrol-7a(5H)-yl)methoxy)-15-oxa-5,6,21,23,25,29-hexaazahexacyclo[24.3.1.1˜17,21˜.0˜2,10˜.0˜3,7˜.0˜22,27˜]hentriaconta-1(30),2,4,7,9,22,24,26,28-nonaen-19-ol] | 6 | 1 | 2.5 | 49 |  |  |  | 
O=C1COCCCc2c(Cl)cc3[nH]ncc3c2-c2ncc3c(nc(OC[C@@]45CCCN4C[C@H](F)C5)nc3c2F)N2CCCC[C@H](C2)N1 [Example 272, (27R)-18-chloro-33-fluoro-4-(((2R,7aS)-2-fluorotetrahydro-1H-pyrrolo[1,2-a]pyrrol-7a(5H)-yl)methoxy)-23-oxa-1,3,5,9,14,15,26-heptaazahexacyclo[25.4.1.1~6,10~.0~2,7~.0~11,19~.0~12,16~]tritriaconta-2,4,6,8,10(33),11,13,16,18-nonaen-25-one] |  |  |  |  | 11 | 3 | 250 | 1760
CN(C)CC1(COc2nc3c4cnc(c(F)c4n2)-c2c(c(Cl)cc4[nH]ncc24)CCCCOCC2(F)CCCCN3C2)CC1 (stereo in doubt) [Example 400, 1-(1-((((26R)-18-chloro-26,32-difluoro-24-oxa-1,3,5,9,14,15-hexaazahexacyclo[24.4.1.1~6,10~.0~2,7~.0~11,19~.0~12,16~]dotriaconta-2,4,6,8,10(32),11,13,16,18-nonaen-4-yl)oxy)methyl)cyclopropyl)-N,N-dimethylmethanamine] | 15 | 8 | 371 | 817 |  |  |  | 
Fc1c2ncc3c(nc(OC[C@@]45CCCN4C[C@H](F)C5)nc13)N1CCOC[C@@H](Cc3ncc(o3)CCc3c(Cl)cc4[nH]ncc4c3-2)C1 (single isomer, unassigned) [Example 376] | 16 | 11 | 350 | 2060 |  |  |  | 
Cc1cc2[nH]ncc2c2c1CCCOC(=O)N[C@]1(C)CCCCN(C1)c1nc(OC[C@@]34CCCN3C[C@H](F)C4)nc3c(F)c-2ncc13 [Example 292, (26R)-32-fluoro-4-(((2R,7aS)-2-fluorotetrahydro-1H-pyrrolo[1,2-a]pyrrol-7a(5H)-yl)methoxy)-18,26-dimethyl-23-oxa-1,3,5,9,14,15,25-heptaazahexacyclo[24.4.1.1~6,10~.0~2,7~.0~11,19~.0~12,16~]dotriaconta-2,4,6(32),7,9,11,13,16,18-nonaen-24-one] |  |  |  |  | 4 | 2 | 17.1 | 178
Cc1cc2[nH]ncc2c2c1CCCOC(=O)O[C@H]1CN(CC[C@H]1C)c1nc(OC[C@@]34CCCN3C[C@H](F)C4)nc3c(F)c-2ncc13 [Example 94, (17R,18R)-30-fluoro-24-(((2R,7aS)-2-fluorotetrahydro-1H-pyrrolo[1,2-a]pyrrol-7a(5H)-yl)methoxy)-9,18-dimethyl-14,16-dioxa-5,6,21,23,25,29-hexaazahexacyclo[24.3.1.1~17,21~.0~2,10~.0~3,7~.0~22,27~]hentriaconta-1(30),2,4,7,9,22,24,26,28-nonaen-15-one] |  |  |  |  | 10 | 6 | 222 | 1000
C[C@@]12COCCN(C1)c1nc(OC[C@H]3CC[C@@H]4COCCN43)nc3c(F)c(ncc13)-c1c(c(Cl)cc3[nH]ncc13)CCCOC(=O)O2 [Example 308, (26S)-18-chloro-32-fluoro-4-((6R,8aR)-hexahydro-1H-pyrrolo[2,1-c][1,4]oxazin-6-ylmethoxy)-26-methyl-23,25,28-trioxa-1,3,5,9,14,15-hexaazahexacyclo[24.4.1.1~6,10~.0~2,7~.0~11,19~.0~12,16~]dotriaconta-2,4,6,8,10(32),11,13,16,18-nonaen-24-one] |  |  |  |  | 6 | 3 | 16.3 | 22
CC12COCCN(C1)c1nc(OC[C@@]34CCCN3C[C@H](F)C4)nc3c(F)c(ncc13)-c1c(c(Cl)cc3[nH]ncc13)CCCc1nc2no1 (mixture of isomers) [Example 379] | 9 | 3 | 85.3 | 404 |  |  |  | 
Cc1cc2[nH]ncc2c2c1CCCCC(=O)N[C@]1(C)CCCCN(C1)c1nc(OC[C@@]34CCCN3C[C@H](F)C4)nc3c(F)c-2ncc13 [Example 280, (26R)-32-fluoro-4-(((2R,7aS)-2-fluorotetrahydro-1H-pyrrolo[1,2-a]pyrrol-7a(5H)-yl)methoxy)-18,26-dimethyl-1,3,5,9,14,15,25-heptaazahexacyclo[24.4.1.1~6,10~.0~2,7~.0~11,19~.0~12,16~]dotriaconta-2,4,6,8,10(32),11,13,16,18-nonaen-24-one] |  |  |  |  | 10 | 3 | 99 | 475
Fc1c2ncc3c(nc(OC[C@@]45CCCN4C[C@H](F)C5)nc13)N1CCO[C@@H](COCC[C@@H]3C[C@@H]3c3c(Cl)cc4[nH]ncc4c3-2)C1 [Example 392, (11S,13S,18R)-9-chloro-31-fluoro-25-(((2R,7aS)-2-fluorotetrahydro-1H-pyrrolo[1,2-a]pyrrol-7a(5H)-yl)methoxy)-16,19-dioxa-5,6,22,24,26,30-hexaazaheptacyclo[25.3.1.1~18,22~.0~2,10~.0~3,7~.0~11,13~.0~23,28~]dotriaconta-1(31),2,4,7,9,23,25,27,29-nonaene] | 6 | 4 | 31.5 | 291 |  |  |  | 
Fc1c2ncc3c(nc(OC[C@@]45CCCN4C[C@H](F)C5)nc13)N1CCO[C@H](C1)c1coc(n1)CCCc1c(Cl)cc3[nH]ncc3c1-2 [Example 390, (18R)-9-chloro-31-fluoro-25-(((2R,7aS)-2-fluorotetrahydro-1H-pyrrolo[1,2-a]pyrrol-7a(5H)-yl)methoxy)-15,19-dioxa-5,6,22,24,26,30,33-heptaazaheptacyclo[25.3.1.1~14,17~.1~18,22~.0~2,10~.0~3,7~.0~23,28~]tritriaconta-1(31),2,4,7,9,14(33),16,23,25,27,29-undecaene] | 5 | 3 | 9.5 | 74 |  |  |  | 
Fc1c2ncc3c(nc(OC[C@@]45CCCN4C[C@H](F)C5)nc13)N1CCOC[C@H](C1)c1cnn(n1)CCCc1c(Cl)cc3[nH]ncc3c1-2 [Example 298, (1R)-10-chloro-33-fluoro-24-(((2R,7aS)-2-fluorotetrahydro-1H-pyrrolo[1,2-a]pyrrol-7a(5H)-yl)methoxy)-30-oxa-4,5,13,14,19,23,25,27,34-nonaazaheptacyclo[25.4.1.1~2,5~.1~18,22~.0~9,17~.0~12,16~.0~21,26~]tetratriaconta-2(34),3,9,11,14,16,18(33),19,21,23,25-undecaene] |  |  |  |  | 7 | 3 | 91.3 | 592
O=C1CCCCc2c(Cl)cc3[nH]ncc3c2-c2ncc3c(nc(OC[C@@]45CCCN4C[C@H](F)C5)nc3c2F)N2CC3CCN1C(C3)C2 (stereo partly shown) [Example 269] |  |  |  |  | 16 | 11 | 250 | 606
O=S1(=O)CCCCc2c(Cl)cc3[nH]ncc3c2-c2ncc3c(nc(OC[C@@]45CCCN4C[C@H](F)C5)nc3c2F)N2CCC[C@H](C2)C1 [Example 145] |  |  |  |  | 68 | 63 | 4670 | 5000
C[C@@]12CCCN(C1)c1nc(OC[C@@]34CCCN3C[C@H](F)C4)nc3c(F)c(ncc13)-c1cccc3ccc(F)c(c13)CCOC(=O)N2 [Example 77, (15R)-22,31-difluoro-8-(((2R,7aS)-2-fluorotetrahydro-1H-pyrrolo[1,2-a]pyrrol-7a(5H)-yl)methoxy)-15-methyl-18-oxa-3,7,9,11,16-pentaazahexacyclo[19.7.1.1~2,6~.1~11,15~.0~5,10~.0~25,29~]hentriaconta-1(29),2(31),3,5,7,9,21,23,25,27-decaen-17-one] |  |  |  |  | 14 | 7 | 745 | 2140
